Where two headings read alike, the source gives them in different places.
Columns and labels:
[1] = target: T1, Wee1 kinase domain (Homo sapiens, UniProt P30291); test: Wee1 Kinase Biochemical Assay (ADP-Glo); conditions: 15 uM ATP
T1 construct: Wee1 kinase domain was purchased from Carna (catalog #05-177); purchased Carna 05-177
Outline: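 ADP-Glo luminescence readout of ADP produced by 1 nM kinase domain phosphorylating Poly(Lys,Tyr 4:1) (2 ng/mL) at 15 uM ATP. Reaction ran 4 h, 25 °C, in Tris/MgCl2 buffer with BSA and DTT. Inhibition scaled between DMSO (high) and saturating control inhibitor (low).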

[2] = test system: phosphorylation of Cdc2 Y15 (Wee1 substrate) in A427 cells; test: Phosphorylated Cdc2 MSD Electrochemiluminescence Assay; type: cell-based; conditions: Homo sapiens
Outline: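 Read-out: percent residual phospho-Cdc2 Y15 relative to DMSO and positive-control Wee1 inhibitor, measured by MSD electrochemiluminescence capture/detection antibody assay in cell lysates. A427 cells received duplicate 3-fold compound dilution series 20 h post-seeding, with 6 h total incubation at 37 °C.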

[3] = class symbols, 1 nM Wee1 enzyme, 4 hours at 25° C.
[4] = A-427, class symbols, read-out: A427 pCDC2 MSD IC50

T1 sequence (P30291 299-569 limits assumed): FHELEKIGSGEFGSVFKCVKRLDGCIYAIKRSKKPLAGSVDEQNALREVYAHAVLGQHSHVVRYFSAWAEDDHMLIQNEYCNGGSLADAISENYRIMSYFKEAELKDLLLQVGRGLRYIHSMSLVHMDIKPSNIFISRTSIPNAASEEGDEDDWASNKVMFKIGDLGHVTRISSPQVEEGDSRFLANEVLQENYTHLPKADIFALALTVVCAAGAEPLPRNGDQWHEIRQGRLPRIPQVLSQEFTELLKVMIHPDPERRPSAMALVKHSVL

Compound	IC50 ([1]; Wee1 kinase domain, ADP-Glo) [nM]	IC50 ([2]; A-427, pCDC2 MSD) [nM]	IC50 [1, 3] [nM]	IC50 [2, 4] [nM]
CN1CCC[C@H](n2cc(Nc3ncc4c(n3)N(c3cccc(N=S(C)(C)=O)n3)[C@@H]3CC(C)(C)OC[C@]43C)cn2)C1 (single isomer, unassigned) [Example 199]	< 10	100 to 1000		
CN1CCCC(n2cc(Nc3ncc4c(n3)N(c3cccc(N=S(C)(C)=O)n3)C3CC(C)(C)OCC43C)cn2)C1 (single isomer, unassigned) [Example 202]	< 10	100 to 1000		
CNCc1cccc(N2c3nc(Nc4ccc([C@]5(C)CCN(C)C5=O)cc4)ncc3[C@@]3(C)COC(C)(C)C[C@@H]23)n1 (single isomer, unassigned) [Example 78]	< 10	100 to 1000		
CN1C[C@@H]2C[C@H]1CN2c1ccc(Nc2ncc3c(n2)N(c2cccc(N4CCCC4=O)n2)[C@@H]2CC(C)(C)OC[C@]32C)cc1F [Example 640, 1-(6-((4bR,8aR)-2-((3-fluoro-4-((1S,4S)-5-methyl-2,5-diazabicyclo[2.2.1]heptan-2-yl)phenyl)amino)-4b,7,7-trimethyl-4b,7,8,8a-tetrahydropyrano[3′,4′:4,5]pyrrolo[2,3-d]pyrimidin-9(5H)-yl)pyridin-2-yl)pyrrolidin-2-one]			< 10	100 to 1000
CN1C[C@H]2C[C@@H]1CN2c1ccc(Nc2ncc3c(n2)N(c2cccc(C(C)(C)O)n2)[C@@H]2CC(C)(C)OC[C@]32C)cc1Cl (single isomer, unassigned) [Example 433]			< 10	100 to 1000
CN1CCN(c2cncc(Nc3ncc4c(n3)N(c3cccc(N=S(C)(C)=O)n3)[C@@H]3CC(C)(C)OC[C@]43C)c2)CC1 (single isomer, unassigned) [Example 483]			< 10	< 100
CNCc1cccc(N2c3nc(Nc4ccc(N5CCC(F)(F)CC5)cc4)ncc3[C@@]3(C)COC(C)(C)C[C@@H]23)n1 (single isomer, unassigned) [Example 16]	< 10	100 to 1000		

The next lines start with the values.

IC50 ([1]; Wee1 kinase domain, ADP-Glo) [nM]	IC50 ([2]; A-427, pCDC2 MSD) [nM]	IC50 [1, 3] [nM]	IC50 [2, 4] [nM]	Compound
< 10	1000 to 10000			C[C@H]1COC(=O)N1c1cccc(N2c3nc(Nc4ccc(C(C)(C)C)nc4)ncc3[C@@]3(C)COC(C)(C)C[C@@H]23)n1 (single isomer, unassigned) [Example 301]
		< 10	100 to 1000	CC1(C)C[C@H]2N(c3cccc(N4CCOC4=O)n3)c3nc(Nc4ccc([C@@H]5CCNC5)cc4)ncc3[C@@]2(C)CO1 (single isomer, unassigned) [Example 607]
< 10	100 to 1000			CC1(C)C[C@H]2N(c3cccc(N=S(C)(C)=O)n3)c3nc(Nc4ccc(C5CNC5)nc4)ncc3[C@@]2(C)CO1 (single isomer, unassigned) [Example 190]
		< 10	100 to 1000	CN=[S@@](C)(=O)c1cccc(N2c3nc(Nc4ccc(C5CCN(C)CC5)cc4)ncc3[C@@]3(C)COC(C)(C)C[C@@H]23)n1 (single isomer, unassigned) [Example 752]
< 10	100 to 1000			C[C@H]1COC(=O)N1c1cccc(N2c3nc(Nc4ccc([C@@]5(C)CCN(C)C5)cc4)ncc3[C@@]3(C)COC(C)(C)C[C@@H]23)n1 (single isomer, unassigned) [Example 349]
		< 10	100 to 1000	CN1CCN(c2ccc(Nc3ncc4c(n3)N(c3cccc(N5C(=O)OCC5(C)C)n3)[C@@H]3CC(C)(C)OC[C@]43C)cc2)CC1 (single isomer, unassigned) [Example 728]
< 10	100 to 1000			C[C@H]1COC(=O)N1c1cccc(N2c3nc(Nc4ccc(O[C@H]5CCNC5)nc4)ncc3[C@@]3(C)COC(C)(C)C[C@@H]23)n1 (single isomer, unassigned) [Example 285]
		< 10	100 to 1000	CN1CC[C@@](C)(c2ccc(Nc3ncc4c(n3)N(c3cccc(N5CCOC5=O)n3)[C@@H]3CC(C)(C)OC[C@]43C)cc2)C1 [Example 670, 3-(6-((4bR,8aR)-2-((4-((S)-1,3-dimethylpyrrolidin-3-yl)phenyl)amino)-4b,7,7-trimethyl-4b,7,8,8a-tetrahydropyrano[3′,4′:4,5]pyrrolo[2,3-d]pyrimidin-9(5H)-yl)pyridin-2-yl)oxazolidin-2-one]
